In article PMC3354555, “Partial Purification and Characterization of Rhodanese from Rainbow Trout (Oncorhynchus mykiss) Liver” (The Scientific World Journal, 2012) one finds Km data, which are given here for 1 compound.

This assay deals with T1, rainbow trout liver rhodanese (thiosulphate: cyanide sulphurtransferase, EC 2.8.1.1).
T1 construct: gene tst
As to conditions: 50 mM KCN, 25 mM citrate-phosphate-borate pH 10.5, 25°C; apparent; partially purified enzyme.

Broadly, the Km is the concentration of substrate that gives half-maximal velocity. On to `O=S(O)(O)=S` [Na2S2O3], for which the Km turned out to be 19.8 mM.
